row,Compound,melting point [°C]
1,CCc1c(C(=O)N(O)O)cc(C(C)(C)C)c(O)c1C(C)(C)C,147 to 150
2,Cc1nn(-c2c(Cl)cc(C(F)(F)F)cc2Cl)c(NCC(=O)O)c1SC(F)(F)F,168 to 170
3,CCCCCCCCCCCCC(OC)C1=CC(=O)OC1O (configuration not stated),53 to 54
4,CCCCCCc1cc2c(s1)NC(=O)CN=C2c1ccc(OC)cc1,123 to 125
5,COc1cnc(OC)n2nc(N)nc12,185 to 186
6,O=C(c1ccccc1)N1CCC(O)CC1,91.5 to 92
7,COc1cccc(/C(=C\C=C\C(=O)NCCCCc2cccnc2)c2cccc(F)c2)c1,96 to 98
8,Cc1cc(OC/C=C(/c2ccc(Cl)cc2)c2ccc(C#CCN3CCC(CO)CC3)cc2)ccc1OCC(=O)O,94 to 104
9,COC(=O)N1C2CCC1CC(=O)C2,60 to 61
10,O=c1[nH]c(N2CCN(CCO)CC2)cc2c(F)cccc12,207 to 208
11,CCCCOCCOC(=O)NCCCCCCNC(=O)OCCOCCCC,64 to 66
12,COC(=O)[C@@H]1CN(C(=O)OCc2ccccc2)C[C@H]1c1ccc(OC)c(OC2CCCC2)c1 (relative stereo),85
13,Cc1ccc(C2CCN(CCCCNC(=O)c3ccc(-c4ccc(C#N)cc4)cc3)CC2)c(O)c1,184
14,CCN(CCSCc1[nH]cnc1C)C(=N)NC#N,118 to 120
15,CCCCCCCCCCCCCCOc1ccc(CNC(C)=O)cc1,100 to 101
16,NC(=S)Nc1cc(Cl)ccc1N1CCOCC1,174 to 175
17,COc1ccccc1NC(=O)Nc1nc(Oc2ccc3ccccc3c2)nc(N(CCC(=O)O)Cc2ccc(F)cc2)n1,211 to 217
18,CC(C)c1c(Cl)sc2[nH]c(=O)c(=O)[nH]c12,> 250
19,O=[N+]([O-])/C=C/c1c2n(c3ccccc13)CCNCC2,225 to 226
20,Cc1ccc(S(=O)(=O)C=C(Cl)C#N)cc1,78
21,COC1=C(OC)C(=O)C(CCCCCCCCCCO)=C(C)C1=O,52
22,C[C@]12CC[C@@H]3c4ccc(OCC(=O)O)cc4CC[C@H]3[C@@H]1CCC2=O,205 to 208

row,Compound,melting point [°C]
1,CCOC(=O)C1=C(C)NC(C)=C(C(=O)OCCN2CCN(C(c3ccc(C)cc3)c3ccc(C)cc3)CC2)C1c1cccc([N+](=O)[O-])c1 (configuration not stated),82 to 85
2,CC(=O)c1ccc(C#CCOC2CCC3C4CCC5CC(C)(O)CCC5(C)C4CCC23C)cc1 (configuration not stated),52 to 55
3,CCCc1c(OCC(O)COc2ccc3c(=O)cc(CCC(=O)OCC)oc3c2CCC)ccc(C(C)=O)c1O (configuration not stated),137 to 138
4,CCCN(C(=S)NC(=O)c1ccccc1)C(CO)c1ccccc1 (configuration not stated),82
5,C#CCSc1ccc([N+](=O)[O-])cn1,98 to 99.5
6,CCC(CC)Oc1cc([N+](=O)[O-])ccc1N,62 to 63
7,Cc1cc(C=O)c(OCCCCCCc2ccccc2)c(C=O)c1,64
8,CN(C)CC1CCC2(CC1)Nc1cc(Cl)c(S(N)(=O)=O)cc1S(=O)(=O)N2 (configuration not stated),273
9,CN(CCc1ccccc1)C1CCN(C(=O)c2ccc(-n3cncn3)nc2)CC1,85 to 86
10,CON(Cc1ccc(F)c(F)c1)C(=O)C1=C(O)C(=O)N(C)C1,146 to 147
11,CC(C)CC(CN(C)C)(C(=O)O)C(=O)O,134 to 137
12,O=C(c1ccc(Cl)cc1)N1CCc2cc(S(=O)(=O)N3CCN(c4cccc(Cl)c4)CC3)ccc21,191 to 192
13,CC(C)(C)OC(=O)N1CCC(OCc2ccccc2)C1CC(=O)Cn1cnc2ccncc2c1=O (configuration not stated),221
14,C=CCNCC(O)COc1cccc2c1CC(=O)N2 (configuration not stated),124 to 127
15,COc1ccc(C#N)cc1C(C)(C)C=O,115 to 117
16,O=C(Nc1sc2c(c1S(=O)(=O)O)CCCC2)C1CC1,225 to 230
17,CCCOCCOc1ccc(-c2ccc3c(c2)C=C(C(=O)Nc2ccc(CN(C)C4CCOCC4)cc2)CCS3(=O)=O)cc1,195 to 197
18,O=C(c1ccccc1)c1ccc([N+](=O)[O-])c(C(=O)NCc2ccccc2)c1,167
19,CC(C)(C)OC(=O)NCCC[C@H](NC(=O)OC(C)(C)C)C(=O)OC(C)(C)C,80 to 82
20,OC1(Cc2ccccc2)CCN(CCC#Cc2ccccc2)CC1,80 to 82
21,COC(=O)CC(C#N)Cc1ccc(Cl)cc1Cl (configuration not stated),86 to 88

# Results, then the compound that gave them:
row,melting point [°C],Compound
1,272 to 274,CSc1[nH]n(C2CCCC2)c2nc(-c3ccncc3)nc(=O)c1-2
2,55 to 59,COc1ccc(-c2ccc(C(C)C=O)cc2F)cc1 (configuration not stated)
3,164 to 165,COc1ccc2nc(Oc3c(Cl)cc(NS(=O)(=O)c4ccc(C(F)(F)F)cc4Cl)cc3Cl)sc2c1
4,136 to 137,CC(C)=CCN1c2nc(Cl)ccc2NC(=O)[C@@H]1C
5,90,CON=C(C(=O)OC)c1ccccc1ON=C(C)c1cccc(C)c1
6,83 to 89,CN(C)CCCCCNC(=O)c1ccc(-c2nnc(CSCCOc3ccccc3)o2)cc1
7,168 to 172,O=C(OCCN1CCOCC1)c1ccc(-c2n[nH]c3c2Cc2ccccc2-3)cc1
8,162,OC1CSC(Oc2cc(-c3ccnc(F)c3)ccc2Cl)C(O)C1O (configuration not stated)
9,86.2,Cc1ccc(S(=O)(=O)N2CCCN(c3cccc(C)c3C)CC2)cc1
10,201 to 202,CCOc1ccc(C(=O)Nc2ccccc2)cc1NC(=S)Nc1cc(Cl)cc(Cl)c1
11,97 to 98,CCOC(=O)c1ccc2cccc(N)c2c1
12,118 to 121,Cc1cc(-c2cc3cc(OCCNC[C@H](O)COc4ccccc4F)ccc3o2)no1
13,> 250,O=C(O)C1=Cc2cc3occ(-c4ccc(Br)cc4)c3cc2OC1C(F)(F)F (configuration not stated)
14,172 to 175,O=C(C=Cc1ccc(-c2ccc(O)c(Cl)c2)cc1)NO
15,128 to 130,C=CCC1Cn2c(ncc(C(=O)O)c2=O)-c2cc(OC)ccc21 (configuration not stated)
16,177 to 178,CN(C)C1(c2ccccc2Cl)C(=O)N(Cc2ccc(C(=O)NC(C)(C)C)cc2)c2ccc(Cl)cc21 (configuration not stated)
17,152 to 153,CN1C(=O)c2cscc2N(Cc2ccccc2)c2ccccc21
18,160,CC(C)c1ccccc1S(=O)(=O)c1ccc(O)cc1
19,177 to 178,Cn1nnc(-c2ccc3c(c2)c(C2=CCN(CCN4CCNC4=O)CC2)cn3-c2ccncc2)n1
20,56,COc1cccc2c(N3CCN(C[C@H]4COc5ccc6nc(C)ccc6c5O4)CC3)coc12
21,58.9,[N-]=[N+]=N[C@@H]1CN2C(=O)N(c3cc(Cl)cc(Cl)c3)C(=O)[C@]2(Cc2ccc(Br)cc2)C1
22,135 to 137,CC(C)(c1ccc([N+](=O)[O-])cc1)c1ccc([N+](=O)[O-])cc1
23,105 to 106,CC(C)(C)c1ccc(OCCC(=O)O)c(C(C)(C)C)c1
24,155 to 158,CS(=O)(=O)c1ccc(-c2cnn(CC(F)(F)F)c(=O)c2NC2CCc3ccccc32)cc1 (configuration not stated)
25,124 to 125,CC(=O)c1sc(-c2ccc(-c3ccccc3)cc2)nc1C
26,167 to 169,COc1cccc(C2NC(=O)N(C(C)C)c3cc(C)ccc32)c1 (configuration not stated)
27,110 to 111,CCCCCCOC1=c2ccc3c(c2=C(c2ccc4c(c2)OCO4)C(C)(C(=O)OC)C1(C)C(=O)OC)OCO3 (configuration not stated)

row,melting point [°C],Compound
1,227 to 228,O=C(O)c1cc(=O)cc(C=Cc2ccccc2)o1
2,128 to 129,C[C@@H](n1cnn(-c2ccc(OCC(F)(F)C(F)(F)F)cc2)c1=O)[C@@]1(c2ccc(F)cc2F)CO1
3,> 330,CC(=O)Nc1nc2cc3[nH]c(-c4ccncc4)nc3cc2[nH]1
4,184 to 185,CS(=O)(=O)c1ccc(C2=C(c3ccccc3)C(=O)C3(CCCC3)O2)cc1
5,206,CCCCn1c(C)c(C2(c3c(C)n(CCCC)c4ccccc34)NNC(=O)c3ccccc32)c2ccccc21
6,107 to 108,CC1c2cc([Si](C)(C)C)ccc2-c2ccc([Si](C)(C)C)cc21
7,195 to 196,COc1cc2c(cc1OCc1ccccc1)CCN(C(=O)c1cc(OC)c(OC)c(OC)c1)C2=O
8,67 to 69,CCN(CCc1ccc(Nc2ncc3c(n2)-c2ccccc2C(c2cccc(Br)c2)C3)cc1)C(C)C (configuration not stated)
9,> 280,CNN(NC)C(=O)Nc1cccc2c1C(=O)c1c-2n[nH]c1-c1ccc(C)s1
10,> 300,Cc1[nH]c(=O)c(C#N)cc1-c1ccc2ncc(Cl)n2c1
11,152 to 154,CC(C)(C)OC(=O)NCC(=O)Nc1ccc(O)cc1
12,128 to 131,CCN(C(=O)OC)c1c(C(=O)c2cnoc2C2CC2)ccc(S(C)(=O)=O)c1Cl
13,245,N#Cc1ccc(-c2n[nH]c3c2Cc2ccccc2-3)cc1
14,168 to 169,CCn1ncc2c1ncc1c(SC)nc3cc(C)nn3c12
15,89 to 90,CCN(CC)C(=O)NCCOC(=O)c1cc(Oc2ccc(C(F)(F)F)cc2Cl)ccc1[N+](=O)[O-]
16,234,O=S(=O)(c1cccc(-c2cc(-c3nc(-c4ccc(C(F)(F)F)cc4)cc(C(F)(F)F)n3)ccn2)c1)N1CCC(O)C1 (racemic)
17,107 to 108,CCCc1cc(C(=O)O)ccc1OCCCCCCc1cccc(OC)c1OC
18,105 to 107,CC#CC(C)(C)NC(=O)C(CC)Oc1ccc2ncc(Cl)cc2c1 (configuration not stated)
19,145,COc1ccc(Cl)cc1C(=O)NCCc1ccc(-c2ccc(OC(C)(C)C(=O)O)cc2)cc1
20,72 to 74,Cc1nc(Cl)c2nnn(-c3ccc(C(C)C)cc3Br)c2n1
21,103 to 104,CCc1cnc(-n2cc(CCCOc3c(CC(=O)O)cccc3OC)c(C(C)C)n2)nc1
22,96 to 97,CCOC(=O)c1conc1-c1ccc(F)c(Br)c1
23,123 to 125,Oc1c(Cc2ccccc2)cc(Br)c2ccccc12
24,174,CCn1nnc(-c2cccc(-c3ccnc4c(C(=O)c5cccs5)cnn34)c2)n1
25,237 to 239,CN(Cc1ccc(-c2ccc(O)c(Br)c2)cc1)C(=O)c1cn(C)c2ccccc12
26,177,O=C(O)[C@H]1O[C@H](c2ccccc2Cl)c2cc(Cl)ccc2N(Cc2ccccc2)C1=O (relative stereo)
27,75,CCOC(=O)C1=C(C)N(CCOC(=O)c2ccccc2)C(=O)NC1c1ccc(OC)cc1 (configuration not stated)

# Source: a melting point compilation (Tetko et al.; mined from patent text by program, amines drawn as free bases though some values may be those of a salt)
